Results reported in US5254535A, “Composition and treatment with biologically active peptides and antibiotic” (priority 1989, dated 1993).
No end group written: not given here.

How the values were obtained:
Assay type in all cases: cell-based
E. coli [1] = experiment: MIC of peptide alone or with 20% of antibiotic MIC, procedure of Example 1; settings: for MIC of antibiotic: antibiotic alone against E. coli; for MIC Peptide alone / MIC Peptide and Ampicillin / MIC Peptide with Aztreonam / MIC Peptide with Bacitracin / MIC Peptide and Benzyl penicillin: E. coli; for MIC Peptide and Ampicillin: peptide plus 20% of the MIC of ampicillin; for MIC Peptide and Ampicillin / MIC Peptide and Benzyl penicillin: Table 4; for MIC Peptide with Aztreonam: peptide plus 20% of the MIC of aztreonam, Table 5; for MIC Peptide with Bacitracin: peptide plus 20% of the MIC of bacitracin, Table 2; for MIC Peptide and Benzyl penicillin: peptide plus 20% of the MIC of benzyl penicillin
Method: (§1) S. aureus organisms are grown to mid log phase, and then diluted to 10^3 organisms/ml in 1/2 strength trypticase soy broth. After the incubation of the organisms, the minimal inhibitory concentration in ug/ml for Z-52 MG-2(amide-terminated), PGLa, CPF Z-50, A-97, Magainin II, and Z-74 peptides, against S. aureus was measured when each peptide was added alone to the organisms. "MG-2 (amide)" is amide-terminated Magainin II, and "Magainin II" is carboxy-terminated Magainin II. A-97 peptide is of the following structure:
(§2) The minimal inhibitory concentration (MIC) for each peptide was then measured when 20% of the minimal inhibitory concentration of bacitracin, tobramycin or gentamicin, respecitvely, is added to the organisms along with the peptide. The gentamicin employed is a mixture of Gentamicin C1, Gentamicin C1a, and Gentamicin C2. […] CPF Z-50 peptide has structure number (8) of the CPF peptides hereinabove described. Z-52 peptide is of the structure (ALSK)6 NH2. The minimal inhibitory concentrations are given below in Table I.
E. coli organisms were incubated according to the procedure described in Example 1. After the incubation, the minimal inhibitory concentrations against E. coli of each of the peptides described in Example 1 alone, as well as of each peptide when employed in combination with 20% of the MIC for bactracin, were then measured.
(§3) In this example, E. coli or P. aeruginosa organisms were incubated according to the procedure described in Example 1. After, the incubation, the minimal inhibitory concentrations of the peptides hereinabove described alone, as well as the peptides in combination with 20% of the minimal inhibitory concentrations (MIC) of benzyl penicillin or ampicillin, were then measured. […]
(§4) E. coli and P. aeruoginosa organisms were incubated according to the procedure described in Example 1. After the incubation, the minimal inhibitory concentrations of the peptides hereinabove described alone, as well as the peptides in combination with 20% of the MIC of the monobactam antibiotic aztreonam, were then measured. The MIC of aztreonam against E. coli is a 2 μg/ml, and against P. aeruginosa is 8 μg/ml.

E. coli [2] = experiment: MIC of peptide with or without 10 μg/ml erythromycin, Example 6
Method: (§5) For each of the organisms listed in Table 6 below, 10^5 organisms were mid-log inoculated into 200 ml of one-half strength trypticase soy broth. The organisms were incubated for 15 hrs. at 37° C. […] The minimal inhibitory concentrations in μg/ml are given below in Table 6. […] K. pneumoniae, P. aeruginosa, and E. coli are Gram-negative bacteria.

K. pneumoniae = experiment: as above
Method: as §5

P. aeruginosa [3] = experiment: as above
Method: as §5

P. aeruginosa [4] = experiment: MIC of peptide alone or with 20% of antibiotic MIC, procedure of Example 1; settings: for MIC of antibiotic: antibiotic alone against P. aeruginosa; for MIC Peptide with Aztreonam: peptide plus 20% of the MIC of aztreonam, Table 5; for MIC Peptide with Bacitracin: peptide plus 20% of the MIC of bacitracin, Table 3
Method: as §1, §2
In this example, P. aeruginosa organisms were incubated according to the procedure described in Example 1. After the incubation, the minimal inhibitory concentrations of the peptides hereinabove described alone, as well as the peptides in combination with 20% of the MIC of bacitracin, were then measured.
as §3, §4

S. aureus [5] = experiment: as above; settings: for MIC Peptide alone / MIC With Added Antibiotic Bacitracin / MIC With Added Antibiotic Gentamicin / MIC With Added Antibiotic Tobramycin: S. aureus; for MIC Peptide alone: Table I; for MIC With Added Antibiotic Bacitracin: peptide plus 20% of the MIC of bacitracin; for MIC With Added Antibiotic Gentamicin: peptide plus 20% of the MIC of gentamicin; for MIC With Added Antibiotic Tobramycin: peptide plus 20% of the MIC of tobramycin; for MIC of antibiotic: antibiotic alone against S. aureus
Method: as §1, §2

S. aureus [6] = experiment: Erythromycin and peptide against S. aureus, Example 6
Method: For each of the organisms listed in Table 6 below, 10^5 organisms were mid-log inoculated into 200 ml of one-half strength trypticase soy broth. The organisms were incubated for 15 hrs. at 37° C. […] K. pneumoniae, P. aeruginosa, and E. coli are Gram-negative bacteria.

[7] = P. aeruginosa, Example 3, Table 3
[8] = P. aeruginosa, Example 5, Table 5
[9] = peptide with erythromycin 10 μg/ml (+)
[10] = peptide, no erythromycin added (-)

Row | Compound | MIC of antibiotic (E. coli [1]) | MIC of antibiotic (P. aeruginosa [4]) | MIC Peptide alone (S. aureus [5]) | MIC With Added Antibiotic Bacitracin (S. aureus [5]) | MIC With Added Antibiotic Gentamicin (S. aureus [5]) | MIC With Added Antibiotic Tobramycin (S. aureus [5]) | MIC Peptide alone (E. coli [1]; Example 2, Table 2) | MIC Peptide alone (E. coli [1]; Example 4, Table 4) | MIC Peptide alone (E. coli [1]; Example 5, Table 5) | MIC Peptide and Ampicillin (E. coli [1]) | MIC Peptide with Aztreonam (E. coli [1]) | MIC Peptide with Bacitracin (E. coli [1]) | MIC Peptide alone (P. aeruginosa [4]; [7]) | MIC Peptide alone (P. aeruginosa [4]; [8]) | MIC Peptide with Aztreonam (P. aeruginosa [4]; P. aeruginosa) | MIC Peptide with Bacitracin (P. aeruginosa [4]; P. aeruginosa) | MIC of antibiotic (S. aureus [5]) | also measured
1 | CC1(C)S[C@@H]2[C@H](NC(=O)Cc3ccccc3)C(=O)N2[C@H]1C(=O)O [benzyl penicillin, reference compound] | 64 µg/mL |  |  |  |  |  |  |  |  |  |  |  |  |  |  |  |  | 
2 | CC[C@H]1OC(=O)[C@H](C)[C@@H](O[C@H]2C[C@@](C)(OC)[C@@H](O)[C@H](C)O2)[C@H](C)[C@@H](O[C@@H]2O[C@H](C)C[C@H](N(C)C)[C@H]2O)[C@](C)(O)C[C@@H](C)C(=O)[C@H](C)[C@@H](O)[C@]1(C)O [Erythromycin, reference compound] |  |  |  |  |  |  |  |  |  |  |  |  |  |  |  |  |  | Minimal Inhibitory Concentration (E. coli [2]; erythromycin alone): > 100 µg/mL; Minimal Inhibitory Concentration (K. pneumoniae; erythromycin alone): > 100 µg/mL; Minimal Inhibitory Concentration (P. aeruginosa [3]; erythromycin alone): > 100 µg/mL
3 | C[C@H]1[C@H](NC(=O)/C(=N\OC(C)(C)C(=O)O)c2csc(N)n2)C(=O)N1S(=O)(=O)O [aztreonam, reference compound] | 2 µg/mL | 8 µg/mL |  |  |  |  |  |  |  |  |  |  |  |  |  |  |  | 
4 | GIGKFLHSAKKFGKAFVGEIMNS-NH2 [MG-2 amide] |  |  | 256 µg/mL | 32 µg/mL | 4 µg/mL | 32 µg/mL | 16 µg/mL | 64 µg/mL | 64 µg/mL | 8 µg/mL | 32 µg/mL | 4 µg/mL | 128 µg/mL | 128 µg/mL | 64 µg/mL | 8 µg/mL |  | MIC Peptide and Benzyl penicillin (E. coli [1]): 32 µg/mL; MIC Peptide alone (P. aeruginosa [4]; P. aeruginosa, Example 4, Table 4): 256 µg/mL; MIC Peptide and Ampicillin (P. aeruginosa [4]; P. aeruginosa, peptide plus 20% of the MIC of ampicillin, Table 4): 128 µg/mL; MIC Peptide and Benzyl penicillin (P. aeruginosa [4]; P. aeruginosa, peptide plus 20% of the MIC of benzyl penicillin, Table 4): 128 µg/mL; Minimal Inhibitory Concentration (E. coli [2]; [9]): 0.5 µg/mL; Minimal Inhibitory Concentration (E. coli [2]; [10]): 5 µg/mL; Minimal Inhibitory Concentration (K. pneumoniae; [9]): < 0.5 µg/mL; Minimal Inhibitory Concentration (K. pneumoniae; [10]): 5 µg/mL; Minimal Inhibitory Concentration (P. aeruginosa [3]; [9]): < 5.0 µg/mL; Minimal Inhibitory Concentration (P. aeruginosa [3]; [10]): 50 to 100 µg/mL; activity of combination against S. aureus (S. aureus [6]; 10 μg/ml of amide-terminated Magainin II and 0.03 μg/ml of erythromycin): effective biological activity; concentration required for effective biological activity (S. aureus [6]; S. aureus, substance alone): greater than 250 μg/ml
5 | NC[C@H]1O[C@H](O[C@H]2[C@H](O)[C@@H](O[C@H]3O[C@H](CO)[C@@H](O)[C@H](N)[C@H]3O)[C@H](N)C[C@@H]2N)[C@H](N)C[C@@H]1O [tobramycin, Tobramycin, reference compound] | 2 µg/mL | 128 µg/mL |  |  |  |  |  |  |  |  |  |  |  |  |  |  | > 256 µg/mL | 
6 | bacitracin [reference compound] | 64 µg/mL | > 256 µg/mL |  |  |  |  |  |  |  |  |  |  |  |  |  |  | 2 µg/mL | 
7 | GIGKFLHSAKKFGKAFVGEIMNS [Magainin II] |  |  | 256 µg/mL | 128 µg/mL | 4 µg/mL | 32 µg/mL | 32 µg/mL | 64 µg/mL | 64 µg/mL | 16 µg/mL | 16 µg/mL | 8 µg/mL | 256 µg/mL | 256 µg/mL | 128 µg/mL | 16 µg/mL |  | MIC Peptide and Benzyl penicillin (E. coli [1]): 32 µg/mL
8 | gentamicin [reference compound] | 2 µg/mL | > 256 µg/mL |  |  |  |  |  |  |  |  |  |  |  |  |  |  | 256 µg/mL | 
9 | GFASFLGKALKAALKIGANLLGGTPQQ [Peptide Z-50, structure number (8) of the CPF peptides] |  |  | 16 µg/mL | 16 µg/mL | 2 µg/mL | 8 µg/mL | 16 µg/mL | 32 µg/mL | 32 µg/mL | 8 µg/mL | 8 µg/mL | 16 µg/mL | 32 µg/mL | 64 µg/mL | 32 µg/mL | 4 µg/mL |  | Minimal Inhibitory Concentration (E. coli [2]; [9]): < 0.5 µg/mL; Minimal Inhibitory Concentration (E. coli [2]; [10]): < 5.0 µg/mL; Minimal Inhibitory Concentration (K. pneumoniae; [9]): < 0.5 µg/mL; Minimal Inhibitory Concentration (K. pneumoniae; [10]): < 0.5 µg/mL; Minimal Inhibitory Concentration (P. aeruginosa [3]; [9]): < 0.5 µg/mL; Minimal Inhibitory Concentration (P. aeruginosa [3]; [10]): < 5.0 µg/mL
10 | CC1(C)S[C@@H]2[C@H](NC(=O)[C@H](N)c3ccccc3)C(=O)N2[C@H]1C(=O)O [ampicillin, alpha-amino-benzyl penicillin, reference compound] | 4 µg/mL |  |  |  |  |  |  |  |  |  |  |  |  |  |  |  |  | 
